{
  "source": "patent US10189872B2",
  "about": "“Crystalline form of nicotinamide riboside” (W. R. Grace & Co.-Conn., priority 2015, dated 2019)",
  "origin": "cited, not measured here",
  "settings": "mice on a high-fat diet supplemented with nicotinamide riboside; 2012 study",
  "data": [
    {"compound": "NC(=O)c1ccc[n+]([C@@H]2O[C@H](CO)[C@@H](O)[C@H]2O)c1", "note": "[nicotinamide riboside, Nicotinamide riboside]", "values": [
      {"measurement": "less weight gained than mice eating the same high-fat diet without nicotinamide riboside", "value": 60, "unit": "%"}
    ]}
  ]
}
